Test results from patent publication US12617779B2, “Self degradation-type CDK9 inhibitor prodrug and liposome encapsulating same” (Sumitomo Pharma Co., Ltd., priority 2021, dated 2026).

Test: Evaluation of conversion rate to active form in buffer solution (Experimental Example 1)
Format: physicochemical
Procedure: For Examples 1 to 16 and Comparative Examples 1 to 14, the attrition rate of the test compound and the conversion rate of the test compound to Alvocidib in a buffer solution were calculated by the following method.
Examples 1 to 16 and Comparative Examples 1 to 14 were each left in buffer solutions adjusted to pH 5.0, 5.5, 6.0, 6.5, 7.0 and 7.4, respectively, at a concentration of 25 umol/L at 37° C. After 0, 0.5, 1, 2 and 3 hours, the residual rates of the compounds of Examples […] and the production rate of Alvocidib were determined by HPLC.
The buffer solutions used at each pH are as follows. • pH 5.0: 50 mM citrate buffer solution (pH 5.0) • pH 5.5: 50 mM citrate buffer solution (pH 5.5) • pH 6.0: 50 mM phosphate buffer solution (pH 6.0) • pH 6.5: 50 mM phosphate buffer solution (pH 6.5) • pH 7.0: 50 mM phosphate buffer solution (pH 7.0) • pH 7.4: 50 mM phosphate buffer solution (pH 7.4)
The measurement conditions for HPLC are as follows.

- Production rate of Alvocidib (pH7.4, 0 hr): 1.0%
- Residual rate (pH7.4, 0 hr): 92.9%
- Conversion to Alvocidib at pH 7.4 (pH 7.4, 37° C., up to 3 hours): slowly converted to Alvocidib
- Production rate of Alvocidib (pH7.4, 0.5 hr): 1.2%
- Residual rate (pH7.4, 0.5 hr): 92.3%
- Production rate of Alvocidib (pH7.4, 1 hr): 1.3%
- Residual rate (pH7.4, 1 hr): 91.8%
- Production rate of Alvocidib (pH7.4, 2 hr): 1.5%
- Residual rate (pH7.4, 2 hr): 91.3%
SMILES: CCCCCCC(=O)O[C@@H]1CN(C)CC[C@@H]1c1c(O)cc(O)c2c(=O)cc(-c3ccccc3Cl)oc12 [Comparative Example 11, reference compound]
